# Patent US10272081B2, “SHIP1 modulators and methods related thereto” (Aquinox Pharmaceuticals (Canada) Inc., priority 2013, dated 2019)
# Target: T1, His-hSHIP1 enzyme (Homo sapiens, UniProt Q92835)
# T1 construct: His
# T1 sequence (Q92835 1-1189): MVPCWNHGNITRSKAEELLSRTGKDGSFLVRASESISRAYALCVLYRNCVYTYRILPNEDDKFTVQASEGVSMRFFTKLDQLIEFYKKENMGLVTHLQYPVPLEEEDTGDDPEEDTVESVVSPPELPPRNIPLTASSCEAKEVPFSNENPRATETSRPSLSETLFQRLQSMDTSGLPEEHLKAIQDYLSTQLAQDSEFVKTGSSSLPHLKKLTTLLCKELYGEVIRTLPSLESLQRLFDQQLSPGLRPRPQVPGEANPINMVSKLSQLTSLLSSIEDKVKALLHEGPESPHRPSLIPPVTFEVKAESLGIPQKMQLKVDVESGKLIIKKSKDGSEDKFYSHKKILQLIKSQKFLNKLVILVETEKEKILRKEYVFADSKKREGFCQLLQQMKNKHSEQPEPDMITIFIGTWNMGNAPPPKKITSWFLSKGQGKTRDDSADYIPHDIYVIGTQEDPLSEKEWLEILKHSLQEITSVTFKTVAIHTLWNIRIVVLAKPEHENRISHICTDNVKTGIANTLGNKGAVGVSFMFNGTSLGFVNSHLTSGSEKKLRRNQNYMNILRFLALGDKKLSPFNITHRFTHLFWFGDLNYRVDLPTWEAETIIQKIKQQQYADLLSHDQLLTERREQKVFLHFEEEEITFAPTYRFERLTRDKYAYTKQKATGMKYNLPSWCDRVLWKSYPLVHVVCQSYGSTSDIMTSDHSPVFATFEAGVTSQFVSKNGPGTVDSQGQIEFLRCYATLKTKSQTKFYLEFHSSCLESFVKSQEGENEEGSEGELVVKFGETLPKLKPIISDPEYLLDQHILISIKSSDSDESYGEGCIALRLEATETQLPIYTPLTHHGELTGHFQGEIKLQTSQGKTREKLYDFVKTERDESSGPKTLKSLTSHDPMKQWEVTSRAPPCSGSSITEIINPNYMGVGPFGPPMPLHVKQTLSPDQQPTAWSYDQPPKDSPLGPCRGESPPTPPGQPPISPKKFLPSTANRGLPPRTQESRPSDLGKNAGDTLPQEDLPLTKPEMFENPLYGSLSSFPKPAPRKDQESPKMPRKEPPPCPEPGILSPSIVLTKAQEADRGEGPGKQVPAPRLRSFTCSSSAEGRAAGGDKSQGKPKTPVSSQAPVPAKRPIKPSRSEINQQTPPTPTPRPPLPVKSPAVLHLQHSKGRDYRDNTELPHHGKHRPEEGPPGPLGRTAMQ
# Test: His-hSHIP1 activity, approach 1 (phosphate release from IP4, Biomol Green)
# Assay type: biochemical
# Settings: activation of His-hSHIP1; IP4 50 μM; test compound 0-300 μM; no asterisk in Table 2
# Experimental: Test compounds are dissolved in 95% ethanol to form stock solutions. Before screening, the stock solutions are diluted with Phosphatase Assay Buffer (20 mM Tris-HCL, 10 mM MgCl2 pH 7.5, 0.02% Tween 20) to form working assay solutions that contain 10% ethanol. The assay is carried out on 96-well microtiter plates using a modified procedure of that reported by Ong et al., Blood 110, 1942-1949, 2007 and Yang et al., Org Lett 7, 1073-1076, 2005, both of which references are incorporated herein by reference in their entirety.
# Data were generated by one of two variant methods. Test compounds are screened by one of two approaches described as follows. In the first approach, each reaction contains 5 μL of His-hSHIP1 enzyme (5-20 ng), 10 μL of the substrate, 1,3,4,5-inositol tetrakisphosphate (IP4; 50 μM final), 5 μL of Phosphatase Assay Buffer, and 5 µL of test compound at various concentrations in 10% ethanol (0-300 μM final). Control blanks are also prepared by replacing His-hSHIP1 enzyme, IP4, or test compounds with Phosphatase Assay Buffer. After adding the reaction components in a 96-well microtiter plate on ice, the reaction is mixed by briefly shaking the plate vigorously. The reaction is then incubated at 37° C. for 15 min with gentle shaking followed by addition of 100 μL of Biomol Green Reagent (BIOMOL, Pa., USA) to terminate the reaction. The free phosphate released from IP4 by His-hSHIP1 binds to the Biomol Green Reagent, which turns the dye to green color. After incubating the mixture for 20 min at room temperature for color development, the absorbance is read with SpectraMax Plus 96-well plate reader (Molecular Devices, Sunnyvale, Calif., USA) at a wavelength of 650 nm.
row,SMILES,"Scoring, Approach 1 (% increase relative to background)"
1,"CC1=CC[C@H]2C(C)(C)CCC[C@]2(C)C1C(=O)c1cc(C)cc(O)c1 (stereo partly drawn) [Compound No. 4, 3-{[(4aS,8aS)-2,5,5,8a-tetramethyl-1,4,4a,5,6,7,8,8a-octahydronaphthalen-1-yl]carbonyl}-5-methylphenol]",++ (50 ≤ x < 65)
2,"COc1cc(C)cc(C(=O)[C@H]2[C@@H](C)[C@H](O)C[C@H]3C(C)(C)CCC[C@]23C)c1 [Compound No. 6, (2R,3R,4S,4aS,8aS)-4-[(3-methoxy-5-methylphenyl)carbonyl]-3,4a,8,8-tetramethyl-decahydronaphthalen-2-ol]",+ (0 < x < 50)
3,"Cc1cc(O)cc(C(=O)[C@H]2[C@H](C)C(=O)C[C@H]3C(C)(C)CCC[C@]23C)c1 [Compound No. 8, (3S,4S,4aS,8aS)-4-[(3-hydroxy-5-methylphenyl)carbonyl]-3,4a,8,8-tetramethyl-decahydronaphthalen-2-one]",+ (0 < x < 50)
4,"Cc1cc(O)cc(C(=O)C2[C@@H](C)[C@H](O)C[C@H]3C(C)(C)CCC[C@]23C)c1 (stereo partly drawn) [Compound No. 9, (2R,3R,4aS,8aS)-4-[(3-hydroxy-5-methylphenyl)carbonyl]-3,4a,8,8-tetramethyl-decahydronaphthalen-2-ol]",+ (0 < x < 50)
5,"COc1cc(C)cc(C(=O)[C@H]2[C@H](C)C(NCCCN)C[C@H]3C(C)(C)CCC[C@]23C)c1.Cl.Cl (stereo partly drawn) [Compound No. 11, (3S,4S,4aS,8aS)-N-(3-aminopropyl)-4-[(3-methoxy-5-methylphenyl)carbonyl]-3,4a,8,8-tetramethyl-decahydronaphthalen-2-amine dihydrochloride]",+++ (x ≥65)
6,"Cc1cc(O)cc(C[C@H]2[C@@H](CO)CC[C@H]3C(C)(C)CCC[C@]23C)c1 [Compound No. 17, 3-{[(1S,2S,4aS,8aR)-2-(hydroxymethyl)-5,5,8a-trimethyl-decahydronaphthalen-1-yl]methyl}-5-methylphenol]",++ (50 ≤ x < 65)
7,"Cc1cc(O)cc(C(=O)[C@H]2[C@H](C)C(O)C[C@H]3C(C)(C)CCC[C@]23C)c1 (stereo partly drawn) [Compound No. 23, (3S,4S,4aS,8aS)-4-[(3-hydroxy-5-methylphenyl)carbonyl]-3,4a,8,8-tetramethyl-decahydronaphthalen-2-ol]",+ (0 < x < 50)
8,"COc1cc(C)cc(OC[C@@H]2[C@@]3(C)CCCC(C)(C)[C@@H]3CC[C@@]2(C)O)c1 [Compound No. 27, (1S,2R,4aS,8aS)-1-(3-methoxy-5-methylphenoxymethyl)-2,5,5,8a-tetramethyl-decahydronaphthalen-2-ol]",++ (50 ≤ x < 65)
9,"CC1=CC[C@H]2C(C)(C)CCC[C@]2(C)[C@H]1COc1cc(C)cc(O)c1 [Compound No. 29, 3-{[(1S,4aS,8aS)-2,5,5,8a-tetramethyl-1,4,4a,5,6,7,8,8a-octahydronaphthalen-1-yl]methoxy}-5-methylphenol]",+++ (x ≥65)
10,"COc1cc(C)cc(OC[C@H]2C(C)C(O)C[C@H]3C(C)(C)CCC[C@]23C)c1 (stereo partly drawn) [Compound No. 30, (4S,4aS,8aS)-4-(3-methoxy-5-methylphenoxymethyl)-3,4a,8,8-tetramethyl-decahydronaphthalen-2-ol]",+ (0 < x < 50)
11,"COc1cc(O)cc(NC(=O)C2=C(C)CC[C@H]3C(C)(C)CCC[C@]23C)c1 [Compound No. 42, (4aS,8aS)-N-(3-hydroxy-5-methoxyphenyl)-2,5,5,8a-tetramethyl-3,4,4a,5,6,7,8,8a-octahydronaphthalene-1-carboxamide]",+ (0 < x < 50)
12,"CC1=C(C(=O)Nc2cc(O)cc(O)c2)[C@@]2(C)CCCC(C)(C)[C@@H]2CC1 [Compound No. 43, (4aS,8aS)-N-(3,5-dihydroxyphenyl)-2,5,5,8a-tetramethyl-3,4,4a,5,6,7,8,8a-octahydronaphthalene-1-carboxamide]",+ (0 < x < 50)
13,"COc1cc(OC)cc(C(=O)C[C@@H]2[C@@]3(C)CCCC(C)(C)[C@@H]3CC[C@@]2(C)O)c1 [Compound No. 45, 2-[(1R,2R,4aS,8aS)-2-hydroxy-2,5,5,8a-tetramethyl-decahydronaphthalen-1-yl]-1-(3,5-dimethoxyphenyl)ethan-1-one]",++ (50 ≤ x < 65)
14,"COc1cc(OC)cc(C(=O)C[C@H]2[C@@H](C)CC[C@H]3C(C)(C)CCC[C@]23C)c1 [Compound No. 46, 2-[(1S,2S,4aS,8aR)-2,5,5,8a-tetramethyl-decahydronaphthalen-1-yl]-1-(3,5-dimethoxyphenyl)ethan-1-one]",++ (50 ≤ x < 65)
15,"COc1cc(O)cc(C(=O)C[C@H]2[C@@H](C)CC[C@H]3C(C)(C)CCC[C@]23C)c1 [Compound No. 47, 2-[(1S,2S,4aS,8aR)-2,5,5,8a-tetramethyl-decahydronaphthalen-1-yl]-1-(3-hydroxy-5-methoxyphenyl)ethan-1-one]",++ (50 ≤ x < 65)
16,"COc1cc(OC)cc(C(=O)[C@@H]2[C@@]3(C)CCCC(C)(C)[C@@H]3CC[C@@]2(C)O)c1 [Compound No. 50, (1R,2R,4aS,8aS)-1-[(3,5-dimethoxyphenyl)carbonyl]-2,5,5,8a-tetramethyl-decahydronaphthalen-2-ol]",++ (50 ≤ x < 65)
17,"COc1cc(OC)cc(C(=O)[C@H]2C(C)=CC[C@H]3C(C)(C)CCC[C@]23C)c1 [Compound No. 51, [(1S,4aS,8aS)-2,5,5,8a-tetramethyl-1,4,4a,5,6,7,8,8a-octahydronaphthalen-1-yl](3,5-dimethoxyphenyl)methanone]",++ (50 ≤ x < 65)
18,"COc1cc(OC)cc(C(=O)[C@H]2[C@@H](C)[C@H](O)C[C@H]3C(C)(C)CCC[C@]23C)c1 [Compound No. 52, (2R,3R,4S,4aS,8aS)-4-[(3,5-dimethoxyphenyl)carbonyl]-3,4a,8,8-tetramethyl-decahydronaphthalen-2-ol]",+++ (x ≥65)
19,"COc1cc(OC)cc(C(=O)[C@H]2[C@@H](C)C(=O)C[C@H]3C(C)(C)CCC[C@]23C)c1 [Compound No. 53, (3R,4S,4aS,8aS)-4-[(3,5-dimethoxyphenyl)carbonyl]-3,4a,8,8-tetramethyl-decahydronaphthalen-2-one]",++ (50 ≤ x < 65)
20,"COc1ccc(CN[C@@H]2C[C@H]3C(C)(C)CCC[C@]3(C)[C@@H](C(=O)c3cc(OC)cc(OC)c3)[C@@H]2C)cc1 [Compound No. 54, (2R,3S,4S,4aS,8aS)-4-[(3,5-dimethoxyphenyl)carbonyl]-N-[(4-methoxyphenyl)methyl]-3,4a,8,8-tetramethyl-decahydronaphthalen-2-amine]",++ (50 ≤ x < 65)
21,"COc1cc(OC)cc(C(=O)[C@H]2[C@H](C)[C@H](N)C[C@H]3C(C)(C)CCC[C@]23C)c1 [Compound No. 55, (2R,3S,4S,4aS,8aS)-4-[(3,5-dimethoxyphenyl)carbonyl]-3,4a,8,8-tetramethyl-decahydronaphthalen-2-amine]",+ (0 < x < 50)
